From ChEMBL document CHEMBL1201862, “PubChem BioAssay data set” (2004)
Activity calls are given as the source filed them.

Columns and labels:
[1] = molecular target: NAD-dependent protein deacylase sirtuin-5, mitochondrial (Homo sapiens, UniProt Q9NXA8); test: sirtuin-5 deacylation blockers, concentration series – biochemical, fluorescence imaging, cherry-pick, set 5, dose response (AID 720591);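 note: desuccinylation of succinyl peptide AMC substrate read as fluorescence after trypsin release; potency of inhibitors that lower fluorescence and may act on trypsin instead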
[2] = PAX8-dependent cell viability loss – plate reader, dry powder, dose response (AID 743049); type: functional, cell-based
Paired box protein Pax-8 = Paired box protein Pax-8 (Homo sapiens, UniProt Q06710); test: PAX8 transcriptional activity inhibition in RMG-I – RMG-I cells, luciferase, cherry-pick, dose response (AID 687027); type: functional, cell-based;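 note: luciferase reporter driven by Pax8 target thyroperoxidase promoter measured by SteadyGlo luminescence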
[3] = OVCAR4 cell viability loss – plate reader, dry powder, SA11, cytotoxicity control for PAX8 inhibitor project, dose response (AID 743150); type: functional, cell-based; conditions: OVCAR-4
[4] = OV-90 cell viability loss – plate reader, dry powder, SA8, PAX8 inhibitor project, dose response (AID 743149); type: functional, cell-based
[5] = IGROV1 cell killing – plate reader, dry powder samples, PAX8 inhibitor project, dose response (AID 743043); type: functional, cell-based; conditions: IGROV-1
[6] = OVCAR-3 cell viability loss – plate reader, dry powder samples, PAX8 inhibitor project, dose response (AID 743044); type: functional, cell-based
[7] = molecular target: Peroxisome proliferator-activated receptor gamma/Nuclear receptor coactivator 1 (Homo sapiens, UniProt P37231); type: functional;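 note: agonist potency as compounds enhance coactivator SRC-1 recruitment to PPARgamma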
[8] = molecular target: Peroxisome proliferator-activated receptor gamma/Nuclear receptor coactivator 3 (Homo sapiens, UniProt P37231); type: functional;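 note: agonist potency for raising coactivator recruitment to the receptor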
[9] = molecular target: Peroxisome proliferator-activated receptor gamma/Nuclear receptor coactivator 2 (Homo sapiens, UniProt P37231); type: functional;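 note: agonist potency for raising coactivator recruitment to the receptor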
[10] = reduction of Shn3 3'UTR-driven luciferase in osteoblasts – cell-based, Clone20 osteoblasts, firefly luciferase, cherry-picked, dose response (AID 624132); type: functional;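 note: firefly luciferase luminescence from reporter carrying the Shn3 3'UTR in osteoblasts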
[11] = Luminescence Cell-Based Dose Retest to Confirm Inhibitors of Cancer Stem Cells. [Related pubchem assays (depositor defined):AID2717, AID2721]; type: functional; conditions: Homo sapiens
[12] = non-specific 3'UTR reporter inhibition in Clone20-Shn3RL – cell-based, Renilla luciferase, cherry-picked, counter-screen for Shn3 inhibitor project, dose response (AID 624133); type: functional
[13] = molecular target: Neurotensin receptor type 1 (Homo sapiens, UniProt P30989); type: functional;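 note: Image-based confirmatory dose-response assay measuring agonist activity at NTR1; NTR1-expressing U2OS osteosarcoma cells imaged for beta-arrestin GFP spot formation; agonist potency where compounds increase beta-arrestin recruitment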
[14] = loss of viability in HepG2 cells – cell-based, CellTiter-Glo, cherry-picked, cytotoxicity control for Shn3 inhibitor project, dose response (AID 624134); type: functional
INS1 = test: INS-1E survival protection against cytokine death – cell-based, luminescence, retest, dose response (AID 449756); type: functional; conditions: Rattus norvegicus;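 note: cell death triggered by IL-1 beta plus TNF-alpha plus IFN-gamma mixture; protective hits raise ATP signal compared with cytokine alone wells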
[15] = Potency on glucagon-like peptide 1 release, dose-response in NCI-H716 cell line, half maximal inhibitory concentration (AID 1117344); type: functional, cell-based
[16] = system: Streptococcus sp. 'group A'; test: Streptococcus pyogenes SK(-)GAS viability under kanamycin – luminescence, BacTiterGlo, confirmation, counter-screen for streptokinase expression inhibitor project, dose response (AID 1900); type: functional, organism-based
[17] = Luminescence Cell-Based Dose Response HTS to Identify Activators of Luciferase Translation or Activity in H4 […] Cells. [Related pubchem assays: 1829 (Project Summary), 1814 (Primary HTS)]; type: functional
[18] = Trypanosoma cruzi growth suppression in host cells – NIH3T3 host cells, beta-gal luminescence, confirmation (AID 2044); type: functional, cell-based;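 note: intracellular parasites grown in NIH/3T3 mouse fibroblasts as host cells; luminescent beta-galactosidase reporter signal from transgenic T. cruzi replicating inside host cells; inhibitors lower the luminescence signal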
H4 = test: Luminescence Cell-Based Dose Response HTS to Identify Activators of 5'UTR Stem-Loop Driven Prion Protein mRNA Translation in H4 Neuroglioblastoma Cells. [Related pubchem assays: 1829 (Project Summary), 1814 (Primary HTS)]; type: functional; conditions: Homo sapiens
[19] = Luminescence Cell-Based Dose Confirmation HTS to Identify Activators of 5'UTR Stem-Loop Driven Alpha-Synuclein mRNA Translation in H4 Neuroglioblastoma Cells. [Related pubchem assays: 1829 (Project Summary), 1814 (Primary HTS)]; type: functional
Streptococcus = test: GAS UMAA2166 growth inhibition – luminescence, BacTiterGlo, counter-screen for streptokinase expression inhibitor project, dose response (AID 1915); type: functional, organism-based;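 note: potency for reduction of bacterial viability or growth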
[20] = glucagon-like peptide-1 release potency in STC-1, concentration-response, half-maximal inhibitory concentration in the STC-1 line (AID 1117345); type: functional, cell-based
[21] = microbe, parasite or virus in culture; type: functional; conditions: Mycobacterium tuberculosis
[22] = NIH3T3 cell viability loss – ATP luminescence, mouse fibroblasts, counter-screen, dose response (AID 2010); type: functional, cell-based;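 note: cells exposed to compound for about 90 hours before reading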
[23] = molecular target: Eukaryotic translation initiation factor 4E (Mus musculus, UniProt P63073); test: blockers of eIF4G binding by eIF4E – biochemical, TR-FRET, dose response (AID 855); type: functional;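 note: potency for disrupting eIF4E binding to eIF4GI seen as loss of FRET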
[24] = Luminescence Cell-Based Dose Response HTS to Identify Inhibitors of 5'UTR Stem-Loop Driven Prion Protein mRNA Translation in H4 Neuroglioblastoma Cells. [Related pubchem assays: 1827 (Project Summary), 1813 (Primary HTS)]; type: functional
Protein Tat = molecular target: T1, Protein Tat (Human immunodeficiency virus type 1 group M subtype B (isolate HXB2)(HIV-1), UniProt P04608); type: functional;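 note: tat binding to TAR RNA read out by fluorescence polarization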
T1 sequence (P04608 whole entry): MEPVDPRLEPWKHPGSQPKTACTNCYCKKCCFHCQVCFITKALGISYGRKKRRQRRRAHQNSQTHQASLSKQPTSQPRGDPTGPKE

[25] = alpha-synuclein stem-loop luciferase translation blockers – H4 neuroglioma cells, luminescence, confirmation (AID 1988); type: functional, cell-based
[26] = luciferase reporter signal suppression in cells – H4 neuroglioma cells, luminescence, dose response (AID 1990); type: functional, cell-based

Chain of NAD-dependent protein deacylase sirtuin-5, mitochondrial (Q9NXA8 whole entry): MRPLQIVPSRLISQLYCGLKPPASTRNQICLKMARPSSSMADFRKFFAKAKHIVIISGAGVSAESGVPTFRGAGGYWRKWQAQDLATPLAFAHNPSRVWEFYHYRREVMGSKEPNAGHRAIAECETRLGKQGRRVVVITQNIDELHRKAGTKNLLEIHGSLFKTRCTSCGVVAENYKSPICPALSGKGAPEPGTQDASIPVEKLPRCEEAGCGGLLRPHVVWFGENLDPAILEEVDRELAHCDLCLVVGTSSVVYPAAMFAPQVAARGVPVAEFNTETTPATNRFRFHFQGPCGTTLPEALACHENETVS
Chain of Neurotensin receptor type 1 (P30989 whole entry): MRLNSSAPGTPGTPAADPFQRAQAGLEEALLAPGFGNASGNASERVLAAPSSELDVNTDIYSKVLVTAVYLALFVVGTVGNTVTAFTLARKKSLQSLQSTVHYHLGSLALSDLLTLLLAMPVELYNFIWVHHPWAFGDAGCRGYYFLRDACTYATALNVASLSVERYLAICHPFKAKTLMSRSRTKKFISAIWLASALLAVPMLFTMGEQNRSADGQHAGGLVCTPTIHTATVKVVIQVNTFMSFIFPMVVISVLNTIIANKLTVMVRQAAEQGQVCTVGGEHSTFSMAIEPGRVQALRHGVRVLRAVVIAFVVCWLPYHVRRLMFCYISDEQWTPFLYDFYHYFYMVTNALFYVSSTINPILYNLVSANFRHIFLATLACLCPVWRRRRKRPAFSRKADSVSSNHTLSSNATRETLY
Chain of Eukaryotic translation initiation factor 4E (P63073 whole entry): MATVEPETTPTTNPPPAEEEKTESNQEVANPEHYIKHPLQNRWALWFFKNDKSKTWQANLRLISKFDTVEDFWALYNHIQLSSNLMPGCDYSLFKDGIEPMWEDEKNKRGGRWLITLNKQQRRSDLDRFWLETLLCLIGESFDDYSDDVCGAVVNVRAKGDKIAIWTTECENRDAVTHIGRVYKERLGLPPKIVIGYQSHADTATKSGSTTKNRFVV
Chain of Peroxisome proliferator-activated receptor gamma/Nuclear receptor coactivator 3 (P37231 whole entry): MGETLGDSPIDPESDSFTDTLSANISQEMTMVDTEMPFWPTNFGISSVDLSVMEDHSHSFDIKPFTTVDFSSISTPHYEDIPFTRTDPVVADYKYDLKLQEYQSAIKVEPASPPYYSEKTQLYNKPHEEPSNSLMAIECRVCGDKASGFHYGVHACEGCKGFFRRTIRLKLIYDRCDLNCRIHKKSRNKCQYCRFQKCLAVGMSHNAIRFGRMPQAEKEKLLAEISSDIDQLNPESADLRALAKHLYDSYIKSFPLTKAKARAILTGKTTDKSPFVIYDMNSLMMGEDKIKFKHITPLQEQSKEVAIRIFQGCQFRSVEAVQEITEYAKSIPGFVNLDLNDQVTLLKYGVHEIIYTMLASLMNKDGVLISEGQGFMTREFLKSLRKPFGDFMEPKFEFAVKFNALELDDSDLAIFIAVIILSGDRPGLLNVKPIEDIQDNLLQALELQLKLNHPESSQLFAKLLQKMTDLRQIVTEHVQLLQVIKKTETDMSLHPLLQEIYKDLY
Chain of Peroxisome proliferator-activated receptor gamma/Nuclear receptor coactivator 3 (Q9Y6Q9 whole entry, further chain): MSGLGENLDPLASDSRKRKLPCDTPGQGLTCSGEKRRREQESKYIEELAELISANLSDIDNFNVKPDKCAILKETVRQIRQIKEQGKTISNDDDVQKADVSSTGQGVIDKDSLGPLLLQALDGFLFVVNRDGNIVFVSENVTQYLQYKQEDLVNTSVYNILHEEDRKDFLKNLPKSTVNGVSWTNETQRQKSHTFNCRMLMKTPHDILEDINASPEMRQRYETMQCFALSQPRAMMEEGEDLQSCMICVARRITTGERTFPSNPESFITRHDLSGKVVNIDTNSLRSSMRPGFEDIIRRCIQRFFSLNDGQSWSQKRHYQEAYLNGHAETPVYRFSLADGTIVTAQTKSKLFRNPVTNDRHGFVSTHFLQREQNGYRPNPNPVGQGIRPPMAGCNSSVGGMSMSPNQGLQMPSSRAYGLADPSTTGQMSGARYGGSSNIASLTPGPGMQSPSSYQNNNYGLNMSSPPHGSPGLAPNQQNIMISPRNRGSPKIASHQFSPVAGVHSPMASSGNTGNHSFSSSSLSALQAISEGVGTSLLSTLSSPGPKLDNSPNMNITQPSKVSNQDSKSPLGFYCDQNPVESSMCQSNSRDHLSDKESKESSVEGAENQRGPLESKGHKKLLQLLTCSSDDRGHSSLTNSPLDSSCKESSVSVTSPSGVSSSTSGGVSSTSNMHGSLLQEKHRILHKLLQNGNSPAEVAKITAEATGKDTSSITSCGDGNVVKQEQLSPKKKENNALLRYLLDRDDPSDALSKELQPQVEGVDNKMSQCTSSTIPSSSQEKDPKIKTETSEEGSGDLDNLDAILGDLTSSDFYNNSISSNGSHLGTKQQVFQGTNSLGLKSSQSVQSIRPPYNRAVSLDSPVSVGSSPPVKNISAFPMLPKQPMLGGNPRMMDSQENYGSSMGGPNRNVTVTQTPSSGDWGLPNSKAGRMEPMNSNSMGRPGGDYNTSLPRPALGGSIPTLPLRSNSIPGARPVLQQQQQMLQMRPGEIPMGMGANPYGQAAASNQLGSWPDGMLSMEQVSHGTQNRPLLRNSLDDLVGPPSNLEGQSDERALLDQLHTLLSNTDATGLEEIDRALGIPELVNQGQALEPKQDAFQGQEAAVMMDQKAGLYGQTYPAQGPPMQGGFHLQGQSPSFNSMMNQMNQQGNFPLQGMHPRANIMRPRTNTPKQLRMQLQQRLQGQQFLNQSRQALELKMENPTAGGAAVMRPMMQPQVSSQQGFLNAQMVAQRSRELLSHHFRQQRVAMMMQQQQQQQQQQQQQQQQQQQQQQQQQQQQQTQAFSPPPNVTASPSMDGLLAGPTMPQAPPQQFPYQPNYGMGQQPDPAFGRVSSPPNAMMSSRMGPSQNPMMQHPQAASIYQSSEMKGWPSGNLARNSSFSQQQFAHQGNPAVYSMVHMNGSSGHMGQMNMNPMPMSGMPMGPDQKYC
Chain of Peroxisome proliferator-activated receptor gamma/Nuclear receptor coactivator 2 (P37231 whole entry): as the sequence (P37231 whole entry) above
Chain of Peroxisome proliferator-activated receptor gamma/Nuclear receptor coactivator 2 (Q15596 whole entry, further chain): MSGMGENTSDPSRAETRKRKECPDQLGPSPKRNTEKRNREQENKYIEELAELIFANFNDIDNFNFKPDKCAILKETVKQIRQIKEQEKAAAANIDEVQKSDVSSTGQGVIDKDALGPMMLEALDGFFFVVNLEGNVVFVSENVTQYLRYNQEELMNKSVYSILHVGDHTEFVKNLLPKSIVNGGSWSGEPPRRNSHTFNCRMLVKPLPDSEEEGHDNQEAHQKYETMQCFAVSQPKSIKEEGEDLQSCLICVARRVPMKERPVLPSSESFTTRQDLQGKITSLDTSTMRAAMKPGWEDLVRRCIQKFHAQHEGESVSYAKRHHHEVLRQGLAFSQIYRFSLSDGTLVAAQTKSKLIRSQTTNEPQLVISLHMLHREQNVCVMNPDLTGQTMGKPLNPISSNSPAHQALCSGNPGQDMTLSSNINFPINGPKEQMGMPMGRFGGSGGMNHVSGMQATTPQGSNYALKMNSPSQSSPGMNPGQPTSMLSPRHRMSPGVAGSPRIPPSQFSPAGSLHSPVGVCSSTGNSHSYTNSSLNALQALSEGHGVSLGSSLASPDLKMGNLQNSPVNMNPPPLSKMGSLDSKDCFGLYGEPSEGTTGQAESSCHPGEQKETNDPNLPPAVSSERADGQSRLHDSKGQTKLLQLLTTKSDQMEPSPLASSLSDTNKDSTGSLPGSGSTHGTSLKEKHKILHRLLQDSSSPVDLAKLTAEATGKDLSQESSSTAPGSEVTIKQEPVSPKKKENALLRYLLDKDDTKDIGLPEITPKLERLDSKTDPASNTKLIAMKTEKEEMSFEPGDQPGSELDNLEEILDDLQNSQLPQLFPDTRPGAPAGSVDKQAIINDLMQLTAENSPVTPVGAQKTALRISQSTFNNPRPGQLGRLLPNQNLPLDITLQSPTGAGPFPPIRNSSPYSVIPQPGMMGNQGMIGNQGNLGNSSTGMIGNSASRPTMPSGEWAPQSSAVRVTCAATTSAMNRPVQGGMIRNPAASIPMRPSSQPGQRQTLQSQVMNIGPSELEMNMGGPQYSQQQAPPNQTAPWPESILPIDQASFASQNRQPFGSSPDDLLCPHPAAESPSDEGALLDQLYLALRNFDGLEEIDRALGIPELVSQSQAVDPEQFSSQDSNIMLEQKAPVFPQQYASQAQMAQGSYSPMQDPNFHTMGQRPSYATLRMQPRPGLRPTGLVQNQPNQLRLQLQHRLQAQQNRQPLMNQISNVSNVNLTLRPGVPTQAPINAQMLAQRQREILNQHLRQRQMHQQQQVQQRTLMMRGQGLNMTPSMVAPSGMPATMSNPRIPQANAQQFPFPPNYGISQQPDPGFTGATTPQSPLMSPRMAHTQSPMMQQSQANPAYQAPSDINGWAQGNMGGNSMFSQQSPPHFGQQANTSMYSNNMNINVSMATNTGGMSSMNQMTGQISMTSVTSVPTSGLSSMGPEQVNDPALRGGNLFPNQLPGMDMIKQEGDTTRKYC

Cc1ccc(Cn2c(N3CCNCC3)nc3c2c(=O)[nH]c(=O)n3C)cc1
AC50 [1]: 25.2 µM (active)

O=C(CCS(=O)(=O)c1ccccc1)Nc1nc2ccc(F)cc2s1
AC50 [2]: 20.3 µM (active) | AC50 (Paired box protein Pax-8): 3.55 µM (active) | AC50 [3]: > 100 µM (inactive) | AC50 [4]: > 100 µM (inactive) | AC50 [5]: 36.9 µM (active) | AC50 [6]: 28 µM (active)

Cc1ccc(CCN2CC(C(=O)NCCN(C)C)CC2=O)cc1 (stereo not drawn)
AC50 [1]: > 30 µM (inactive)

OC(C#CCN1CCCC1)(c1ccccc1)c1cccc(F)c1 (stereo not drawn)
EC50 [7]: > 79.4 µM (not active) | EC50 [8]: > 79.4 µM (not active) | EC50 [9]: > 79.4 µM (not active)

Cc1cc(F)ccc1S(=O)(=O)Nc1ccccc1C(=O)Nc1ccccc1-c1nc2ccccc2[nH]1
AC50 [10]: 12.1 µM (active) | AC50 [11]: 2.02 µM (active) | AC50 [12]: 9.69 µM (active) | EC50 [13]: 29 µM (inactive) | AC50 [14]: 23.2 µM (active) | AC50 (INS1): 6.59 µM (active)

C#C[C@]1(O)CC[C@H]2[C@@H]3CCc4cc(OC5CCCC5)ccc4[C@H]3CC[C@@]21C [QUINESTROL]
IC50 [15]: 17.6 µM (inactive) | EC50 [16]: 1.94 µM (active) | EC50 [17]: > 120 µM (not active) | EC50 [18]: 4.43 µM (active) | EC50 (H4): > 120 µM (not active) | EC50 [19]: > 120 µM (not active) | EC50 (Streptococcus): 4.17 µM (active) | IC50 [20]: > 40 µM (inactive) | CC50 [21]: > 40 µM (active) | EC50 [22]: > 60 µM (not active)

O=C(NCCc1ccncc1)c1ccccc1F
IC50 [23]: > 64 µM (inactive)

CC(C)C[C@H](NC(=O)c1[nH]cnc1C(=O)N1CCN(c2ccccc2)CC1)C(=O)OC(C)(C)C
EC50 [24]: 65.1 µM (active) | IC50 (Protein Tat): > 100 µM (active) | EC50 [25]: 26.5 µM (active) | EC50 [26]: 14.5 µM (active)

O=C(N/N=C/c1ccc(OC(=O)c2ccccc2Cl)cc1)c1ccc(O)cc1
EC50 [13]: 17.1 µM (active)
